Test results: patent US12042655B2, “Systems for detecting catheter movement” (Cardionomic, Inc., priority 2017, dated 2024)

System: normal, non-HF ovine model
Assay: Change in right and left ventricle contractility after injection, with max(dP/dt) pressure as surrogate and heartbeat-by-heartbeat RV/LV correlation
Type: in vivo
Settings: max(dP/dt) used as surrogate for contractility
Excerpt: The correlation was a heartbeat-by-heartbeat analysis. Pressure measurements, taken by a Millar catheter comprising a MEMS pressure sensor, in units of max(dP/dt) was used as a surrogate for contractility. The first change, a dobutamine injection, provided a very high contractility increase greater than 500%. The average correlation between right ventricle contractility and left ventricle contractility was very good at 0.91, where 1.00 is a perfect correlation. Accordingly, if a subject is given a dobutamine injection, measuring changes to right ventricle contractility can provide accurate information about changes to left ventricle contractility. The first change was repeated three times. The second change, calcium injection at 5 mL, provided a contractility increase of about 20%. […] The average correlation between right ventricle contractility and left ventricle contractility using a Millar (MEMS) sensor on a catheter was very good at 0.91. The average correlation between right ventricle contractility and left ventricle contractility using a fluid-filled lumen of a Swan-Ganz catheter in communication with an external pressure sensor was also very good at 0.87. Accordingly, under certain circumstances such as measurement of an animal (normal, non-HF ovine model) model, if a subject is given a calcium injection, measuring changes to right ventricle contractility with a MEMS sensor or a fluid filled lumen can provide accurate information about changes to left ventricle contractility.

Row | Compound | Contractility % Increase [%] | Contractility % Increase (listed as calcium injection) | Contractility % Increase (listed as dobutamine injection)
1 | calcium [Calcium Injection] | ~20 | about 20% | –
2 | CC(CCc1ccc(O)cc1)NCCc1ccc(O)c(O)c1 (stereo not shown) [Dobutamine Injection, dobutamine] | >500 | – | greater than 500%
